According to patent US20080318943A1, “Compounds and Uses Thereof - 848” (ASTRAZENECA AB, priority 2007, published 2008):
Where “and” joins values, the source holds several entries; their conditions need not be identical. Equal values may be shown once.

Each molecule was assayed against T1, GABAA2 receptors (α2, β3, γ2 receptor subunits transfected into Sf9 cells) (Homo sapiens, UniProt P18507+P47869) (assay: GABAA2 Binding Method ([3H]-Flunitrazepam displacement)). Settings: [3H]-Flunitrazepam ~2 nM, α2β3γ2 Sf9 membranes, 1 hr at 4° C.
T1 construct: host or cells: Sf9 cells (membranes)
Method: In some embodiments, the binding test is directed to a subtype of GABAA receptors, such as GABAA1 receptors (i.e., those containing the α1 subunit), GABAA2 receptors (i.e., those containing the α2 subunit), GABAA3 receptors (i.e., those containing the α3 subunit) and GABAA5 receptors (i.e., those containing the α5 subunit).
[^3H]-Flunitrazepam (Cat #NET567): Prepare 10× stock=20 nM, [F} in assay=˜2 nM
1. […] Add 5 ul of 30 uM flumazenil to wells 12 D-E for 50% control wells.
5. Add 25 μl [^3H]-Flunitrazepam (Automation Program 6). Incubate for 1 hr at 4° C.
6. Collect membranes on a cell harvester onto GF/B filter plates (pre-wet with dH2O and wash 5×400 μl/well, with cold assay buffer. (First 3 washes are considered hot; last two are cold.)
Data is analyzed by calculating percent of control, IC50, and Ki in an XLfit template. The following formula is used in the templates: […]

T1 sequence (P47869 29-451): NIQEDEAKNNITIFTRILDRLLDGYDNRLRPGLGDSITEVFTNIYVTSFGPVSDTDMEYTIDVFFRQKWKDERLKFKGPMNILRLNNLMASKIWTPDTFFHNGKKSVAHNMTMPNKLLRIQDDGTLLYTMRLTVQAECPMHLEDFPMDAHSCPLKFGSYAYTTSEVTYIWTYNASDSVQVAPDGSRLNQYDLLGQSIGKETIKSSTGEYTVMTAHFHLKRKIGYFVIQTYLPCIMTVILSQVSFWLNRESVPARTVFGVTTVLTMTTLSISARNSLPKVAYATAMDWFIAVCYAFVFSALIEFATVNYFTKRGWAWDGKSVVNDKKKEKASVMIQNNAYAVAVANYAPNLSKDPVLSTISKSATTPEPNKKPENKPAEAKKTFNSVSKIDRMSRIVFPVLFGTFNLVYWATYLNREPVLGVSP
T1 sequence (P28472 26-473 partner): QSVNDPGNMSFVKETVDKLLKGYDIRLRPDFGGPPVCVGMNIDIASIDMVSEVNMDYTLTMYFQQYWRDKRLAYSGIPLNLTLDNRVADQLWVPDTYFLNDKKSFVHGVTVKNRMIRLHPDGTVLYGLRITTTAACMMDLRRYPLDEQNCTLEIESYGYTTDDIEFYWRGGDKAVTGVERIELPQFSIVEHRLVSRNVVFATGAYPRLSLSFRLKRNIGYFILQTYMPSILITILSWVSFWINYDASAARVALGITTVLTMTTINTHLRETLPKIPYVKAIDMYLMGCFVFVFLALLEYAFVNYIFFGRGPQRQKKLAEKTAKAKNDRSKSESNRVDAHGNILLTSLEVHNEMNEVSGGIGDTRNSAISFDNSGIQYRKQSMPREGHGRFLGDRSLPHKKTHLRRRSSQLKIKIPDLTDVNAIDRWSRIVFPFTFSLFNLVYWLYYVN
T1 sequence (P18507 40-475): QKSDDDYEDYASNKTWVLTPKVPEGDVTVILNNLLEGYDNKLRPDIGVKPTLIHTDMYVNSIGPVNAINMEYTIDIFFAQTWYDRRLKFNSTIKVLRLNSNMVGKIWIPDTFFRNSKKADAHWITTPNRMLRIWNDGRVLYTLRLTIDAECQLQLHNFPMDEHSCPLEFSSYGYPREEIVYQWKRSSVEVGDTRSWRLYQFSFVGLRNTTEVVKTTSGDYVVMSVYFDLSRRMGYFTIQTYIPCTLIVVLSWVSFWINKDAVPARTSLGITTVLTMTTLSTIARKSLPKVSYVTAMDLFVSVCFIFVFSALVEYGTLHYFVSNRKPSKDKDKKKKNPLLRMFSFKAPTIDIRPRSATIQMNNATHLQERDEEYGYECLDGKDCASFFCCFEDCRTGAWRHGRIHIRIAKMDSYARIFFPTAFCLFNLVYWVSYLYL

`COc1ccc(F)c(-c2cccc3c(N)c4c(nc23)CN(C)C4=O)c1` [9-amino-5-(2-fluoro-5-methoxyphenyl)-2-methyl-2,3-dihydro-1H-pyrrolo[3,4-b]quinolin-1-one] and `COc1ccc(-c2cccc3c(N)c4c(nc23)CN(C)C4=O)c(F)c1` [9-amino-5-(2-fluoro-4-methoxyphenyl)-2-methyl-2,3-dihydro-1H-pyrrolo[3,4-b]quinolin-1-one] are within 1.5-fold of each other in Ki: 55.8 nM for the first, 77.8 nM for the second.

First: COc1cc(F)c(-c2cccc3c(N)c4c(nc23)CN(C2CC2)C4=O)cc1F [9-amino-2-cyclopropyl-5-(2,5-difluoro-4-methoxyphenyl)-2,3-dihydro-1H-pyrrolo[3,4-b]quinolin-1-one]
Second: COc1cc(F)ccc1-c1cccc2c(N)c3c(nc12)CN(C1CC1)C3=O [9-amino-2-cyclopropyl-5-(4-fluoro-2-methoxyphenyl)-2,3-dihydro-1H-pyrrolo[3,4-b]quinolin-1-one]
The Ki of the first is 2.3-fold lower: 36.8 nM for the first, 83.1 nM for the second. The first binds more tightly here.

Compared with `COc1ccc(OC)c(-c2c(SC)ccc3c(N)c4c(nc23)CN(C2CC2)C4=O)c1` [9-amino-2-cyclopropyl-5-(2,5-dimethoxyphenyl)-6-(methylthio)-2,3-dihydro-1H-pyrrolo[3,4-b]quinolin-1-one], `COc1ccc(-c2c(F)ccc3c(N)c4c(nc23)CN(C2CC2)C4=O)c(OC)c1` [Example 28, 9-Amino-2-cyclopropyl-5-(2,4-dimethoxyphenyl)-6-fluoro-2,3-dihydropyrrolo[3,4-b]quinolin-1-one] is 4.4-fold lower in Ki: 36.7 nM for the first, 8.33 nM for the second.

`CCCN1Cc2nc3c(-c4cnc(OC)nc4)cccc3c(N)c2C1=O` [9-amino-5-(2-methoxypyrimidin-5-yl)-2-propyl-2,3-dihydro-1H-pyrrolo[3,4-b]quinolin-1-one] and `CCCN1Cc2nc3c(-c4cnc(OC)c(F)c4)cccc3c(N)c2C1=O` [9-amino-5-(5-fluoro-6-methoxypyridin-3-yl)-2-propyl-2,3-dihydro-1H-pyrrolo[3,4-b]quinolin-1-one] are within 1.5-fold of each other in Ki: 75.8 nM for the first, 81.1 nM for the second.

`COc1ccc(-c2cccc3c(N)c4c(nc23)CN(C)C4=O)cc1OC` [9-amino-5-(3,4-dimethoxyphenyl)-2-methyl-2,3-dihydro-1H-pyrrolo[3,4-b]quinolin-1-one] and `COc1ccc(-c2cccc3c(N)c4c(nc23)CN(C)C4=O)c(OC)c1` [9-amino-5-(2,4-dimethoxyphenyl)-2-methyl-2,3-dihydro-1H-pyrrolo[3,4-b]quinolin-1-one] are within 1.5-fold of each other in Ki: 88 nM for the first, 79 nM for the second.

`CN1Cc2nc3c(-c4ccccc4C#N)cccc3c(N)c2C1=O` [2-(9-amino-2-methyl-1-oxo-2,3-dihydro-1H-pyrrolo[3,4-b]quinolin-5-yl)benzonitrile] and `Cc1ccncc1-c1cccc2c(N)c3c(nc12)CN(C)C3=O` [9-amino-2-methyl-5-(4-methylpyridin-3-yl)-2,3-dihydro-1H-pyrrolo[3,4-b]quinolin-1-one] are within 1.5-fold of each other in Ki: 64.3 nM for the first, 64.9 nM for the second.

Compared with `COc1ccc(CN2Cc3nc4c(-c5cccc(F)c5F)cccc4c(N)c3C2=O)cc1` [9-amino-5-(2,3-difluorophenyl)-2-(4-methoxybenzyl)-2,3-dihydro-1H-pyrrolo[3,4-b]quinolin-1-one], `COc1ccc(CN2Cc3nc4c(-c5cc(C)ccc5OC)cccc4c(N)c3C2=O)cc1` [9-amino-5-(2-methoxy-5-methylphenyl)-2-(4-methoxybenzyl)-2,3-dihydro-1H-pyrrolo[3,4-b]quinolin-1-one] is 1.8-fold lower in Ki: 98.2 nM for the first, 55.1 nM for the second. The second binds more tightly here.

`CCN1Cc2nc3c(-c4ccc(C)nc4)cccc3c(N)c2C1=O` [9-amino-2-ethyl-5-(6-methylpyridin-3-yl)-2,3-dihydro-1H-pyrrolo[3,4-b]quinolin-1-one] and `CCCCN1Cc2nc3c(-c4ccc(C)nc4)cccc3c(N)c2C1=O` [9-amino-2-butyl-5-(6-methylpyridin-3-yl)-2,3-dihydro-1H-pyrrolo[3,4-b]quinolin-1-one] are within 1.5-fold of each other in Ki: 77.6 nM for the first, 90.5 nM for the second.

`CCCN1Cc2nc3c(-c4cnc(Cl)c(C)c4)cccc3c(N)c2C1=O` [9-amino-5-(6-chloro-5-methylpyridin-3-yl)-2-propyl-2,3-dihydro-1H-pyrrolo[3,4-b]quinolin-1-one] and `CCCN1Cc2nc3c(-c4cnn(C)c4)cccc3c(N)c2C1=O` [9-amino-5-(1-methyl-1H-pyrazol-4-yl)-2-propyl-2,3-dihydro-1H-pyrrolo[3,4-b]quinolin-1-one] are within 1.5-fold of each other in Ki: 85.7 nM for the first, 99.7 nM for the second.

First: CCC(C)N1Cc2nc3c(-c4c(F)cccc4OC)cccc3c(N)c2C1=O (stereo not shown) [9-amino-2-(2-butyl)-5-(2-fluoro-6-methoxyphenyl)-2,3-dihydro-1H-pyrrolo[3,4-b]quinolin-1-one]
Second: CCCN1Cc2nc3c(-c4c(C#N)cccc4OC)cccc3c(N)c2C1=O [2-(9-amino-1-oxo-2-propyl-2,3-dihydro-1H-pyrrolo[3,4-b]quinolin-5-yl)-3-methoxybenzonitrile]
The Ki of the first is 1.6-fold lower: 46.2 nM for the first, 75.7 nM for the second. The first binds more tightly here.

First: COc1cc(F)cc(-c2cccc3c(N)c4c(nc23)CN(C)C4=O)c1 [9-amino-5-(3-fluoro-5-methoxyphenyl)-2-methyl-2,3-dihydro-1H-pyrrolo[3,4-b]quinolin-1-one]
Second: CCN1Cc2nc3c(-c4cc(F)cc(OC)c4)cccc3c(N)c2C1=O [9-amino-2-ethyl-5-(3-fluoro-5-methoxyphenyl)-2,3-dihydro-1H-pyrrolo[3,4-b]quinolin-1-one]
The Ki of the first is 2.3-fold higher: 80.4 nM for the first, 34.3 nM for the second. The second binds more tightly here.

`COc1ccc(-c2cccc3c(N)c4c(nc23)CN(C2CC2)C4=O)c(OC)c1` [9-amino-2-cyclopropyl-5-(2,4-dimethoxyphenyl)-2,3-dihydro-1H-pyrrolo[3,4-b]quinolin-1-one] and `COc1ccccc1-c1cccc2c(N)c3c(nc12)CN(C1CC1)C3=O` [9-amino-2-cyclopropyl-5-(2-methoxyphenyl)-2,3-dihydro-1H-pyrrolo[3,4-b]quinolin-1-one] are within 1.5-fold of each other in Ki: 58.4 nM for the first, 54.1 nM for the second.

First: COc1ccc(-c2c(F)ccc3c(N)c4c(nc23)CN(C2CC2)C4=O)c(OC)n1 [Example 54, 9-Amino-2-cyclopropyl-5-(2,6-dimethoxypyridin-3-yl)-6-fluoro-2,3-dihydropyrrolo[3,4-b]quinolin-1-one]
Second: COc1ccc(-c2c(F)ccc3c(N)c4c(nc23)CN(C2CCC2)C4=O)c(OC)n1 [Example 52, 9-Amino-2-cyclobutyl-5-(2,6-dimethoxypyridin-3-yl)-6-fluoro-2,3-dihydropyrrolo[3,4-b]quinolin-1-one]
The Ki of the first is 19-fold higher: 14.5 nM for the first, 0.774 nM for the second.

`Nc1c2c(nc3c(-c4cccnc4)cccc13)CN(C1CC1)C2=O` [9-amino-2-cyclopropyl-5-(pyridin-3-yl)-2,3-dihydro-1H-pyrrolo[3,4-b]quinolin-1-one] and `COc1ncc(-c2cccc3c(N)c4c(nc23)CN(C2CC2)C4=O)c(OC)n1` [9-amino-2-cyclopropyl-5-(2,4-dimethoxypyrimidin-5-yl)-2,3-dihydro-1H-pyrrolo[3,4-b]quinolin-1-one] are within 1.5-fold of each other in Ki: 64.7 nM for the first, 78.2 nM for the second.

`COc1ccc(CN2Cc3nc4c(-c5cc(OC)ccc5OC)cccc4c(N)c3C2=O)cc1` [9-amino-5-(2,5-dimethoxyphenyl)-2-(4-methoxybenzyl)-2,3-dihydro-1H-pyrrolo[3,4-b]quinolin-1-one] and `COc1ccc(CN2Cc3nc4c(-c5cnn(C)c5)cccc4c(N)c3C2=O)cc1` [9-amino-2-(4-methoxybenzyl)-5-(1-methyl-1H-pyrazol-4-yl)-2,3-dihydro-1H-pyrrolo[3,4-b]quinolin-1-one] are within 1.5-fold of each other in Ki: 70.2 nM for the first, 70.6 nM for the second.

Compared with `CCCN1Cc2nc3c(-c4ccc(Cl)nc4Cl)cccc3c(N)c2C1=O` [9-amino-5-(2,6-dichloropyridin-3-yl)-2-propyl-2,3-dihydro-1H-pyrrolo[3,4-b]quinolin-1-one], `CCCN1Cc2nc3c(-c4ccc(F)cc4)cccc3c(N)c2C1=O` [9-amino-5-(4-fluorophenyl)-2-propyl-2,3-dihydro-1H-pyrrolo[3,4-b]quinolin-1-one] is 3.6-fold higher in Ki: 21.6 nM for the first, 78.3 nM for the second. The first binds more tightly here.

`CCCN1Cc2nc3c(-c4ccc(C#N)cc4)cccc3c(N)c2C1=O` [4-(9-amino-1-oxo-2-propyl-2,3-dihydro-1H-pyrrolo[3,4-b]quinolin-5-yl)benzonitrile] and `CCCN1Cc2nc3c(-c4ccc(F)c(C#N)c4)cccc3c(N)c2C1=O` [5-(9-amino-1-oxo-2-propyl-2,3-dihydro-1H-pyrrolo[3,4-b]quinolin-5-yl)-2-fluorobenzonitrile] are within 1.5-fold of each other in Ki: 52.1 nM for the first, 74.5 nM for the second.

First: CCN1Cc2nc3c(-c4cc(OC)cc(OC)c4)cccc3c(N)c2C1=O [9-amino-5-(3,5-dimethoxyphenyl)-2-ethyl-2,3-dihydro-1H-pyrrolo[3,4-b]quinolin-1-one]
Second: COc1cc(OC)cc(-c2cccc3c(N)c4c(nc23)CN(C)C4=O)c1 [9-amino-5-(3,5-dimethoxyphenyl)-2-methyl-2,3-dihydro-1H-pyrrolo[3,4-b]quinolin-1-one]
The Ki of the first is 2.7-fold lower: 27.2 nM for the first, 74.1 nM for the second.

`COc1ccc(C)cc1-c1cccc2c(N)c3c(nc12)CN(C)C3=O` [9-amino-5-(2-methoxy-5-methylphenyl)-2-methyl-2,3-dihydro-1H-pyrrolo[3,4-b]quinolin-1-one] and `Cc1cc(C)cc(-c2cccc3c(N)c4c(nc23)CN(C)C4=O)c1` [9-amino-5-(3,5-dimethylphenyl)-2-methyl-2,3-dihydro-1H-pyrrolo[3,4-b]quinolin-1-one] are within 1.5-fold of each other in Ki: 70.2 nM for the first, 65.5 nM for the second.

`COc1cccc(F)c1-c1cccc2c(N)c3c(nc12)CN(Cc1cccc(Cl)c1)C3=O` [9-amino-2-(3-chlorobenzyl)-5-(2-fluoro-6-methoxyphenyl)-2,3-dihydro-1H-pyrrolo[3,4-b]quinolin-1-one] showed a Ki of 27.8 nM.

For `COc1cccc(F)c1-c1cccc2c(N)c3c(nc12)CN(C1CC1)C3=O` [Example 16, 9-Amino-2-cyclopropyl-5-(2-fluoro-6-methoxyphenyl)-2,3-dihydropyrrolo[3,4-b]quinolin-1-one], the Ki was 3.63 nM and 6.36 nM.
